The record followed here is US9586931B2 (Merck Sharp & Dohme Corp., priority 2012, dated 2017).

For orientation: IC50 means the concentration at which inhibition is half-maximal.

The structures appear in SMILES notation. Counter-ions that a name gives are not always drawn.

The target in the test is T1, recombinant human GST-Syk (Homo sapiens, UniProt P43405).
T1 construct: purchased Carna Biosciences 08-176
As to the kind of experiment: Homogeneous Time-Resolved Fluorescence (HTRF) assay for the recombinant human Syk enzyme. The class given is biochemical. Conditions: recombinant human GST-Syk 5 pM, ATP 25 μM, 10-dose titration 10 μM to 0.508 nM; read-out: rhSYK Activity IC50. As to the method:
Syk inhibition may be determined using the following assay protocol:
Homogeneous Time-Resolved Fluorescence (HTRF) assay for the recombinant human Syk enzyme: A recombinant GST-hSyk fusion protein was used to measure potency of compounds to inhibit human Syk activity. […] Final volume of the reaction was 10 μL. Phosphorylation of the peptide was allowed to proceed for 45 minutes at room temperature. To quench the reaction and detect the phosphorylated product, 2 nM of a Europium-anti-phosphotyrosine antibody (Perkin Elmer #AD0161) and 70 nM SA-APC (Perkin-Elmer #CR130-100) were added together in 15 mM Tris pH 7.5, 40 mM EDTA, 0.01% tween 20. Final volume of the quenching solution was 10 μL. The resulting HTRF signal was measured after 30 minutes on an EnVision (Perkin-Elmer) reader using a time-resolved fluorescence protocol.
(TR-FRET usually uses a lanthanide donor and a delayed reading to cut background.)
With `Cc1cc(Nc2ncc(F)c(C(F)F)n2)cc(-c2cn(CC3OC(=O)NC3C)nn2)c1` (single isomer, unassigned) [Example 7.40, 5-{[4-(3-{[4-(difluoromethyl)-5-fluoropyrimidin-2-yl]amino}-5-methylphenyl)-1H-1,2,3-triazol-1-yl]methyl}-4-methyl-1,3-oxazolidin-2-one], the half-maximal inhibitory concentration (IC50) came to 0.0257 µM. Next, `Cc1cc(Nc2cc(C(F)(F)F)ccn2)nc(-c2cn(C(C)C(O)CC#N)nn2)c1` (stereo not shown) [Example 4.2, 3-hydroxy-4-[4-(4-methyl-6-{[4-(trifluoromethyl)pyridin-2-yl]amino}pyridin-2-yl)-1H-1,2,3-triazol-1-yl]pentanenitrile]: 0.0128 µM; `Cc1cc(Nc2nccc(C(F)F)n2)cc(-c2cn(CC(C)(O)C(C)(C)O)nn2)c1` (stereo not shown) [Example 21.18, 1-[4-(3-{[4-(difluoromethyl)pyrimidin-2-yl]amino}-5-methylphenyl)-1H-1,2,3-triazol-1-yl]-2,3-dimethylbutane-2,3-diol]: 0.0385 µM; `Cc1cc(Nc2cc(C(F)(F)F)ccn2)nc(-c2cn(C3CN(C(=O)C(C)O)CC3O)nn2)c1` (single isomer, unassigned) [Example 13.4, 1-[2-hydroxypropanoyl]-4-[4-(4-methyl-6-{[4-(trifluoromethyl)pyridin-2-yl]amino}pyridin-2-yl)-1H-1,2,3-triazol-1-yl]pyrrolidin-3-ol]: 0.015 µM. Next, `Cc1cc(Nc2cc(C(F)(F)F)ccn2)nc(-c2cn(C(CO)c3ccc(C(N)=O)cc3)nn2)c1` (stereo not shown) [Example 1.9, 4-{2-hydroxy-1-[4-(4-methyl-6-{[4-(trifluoromethyl)pyridin-2-yl]amino}pyridin-2-yl)-1H-1,2,3-triazol-1-yl]ethyl}benzamide]: 0.0029 µM; `Cc1cc(Nc2cc(C(F)F)ccn2)nc(-c2cn(C3CCCC(O)C3O)nn2)c1` (stereo not shown) [Example 21.37, 3-(4-(6-((4-(difluoromethyl)pyridin-2-yl)amino)-4-methylpyridin-2-yl)-1H-1,2,3-triazol-1-yl)cyclohexane-1,2-diol]: 0.0019 µM; `Cc1cc(Nc2cc(C(F)(F)F)ccn2)nc(-c2cn(C[C@H](O)C(=O)O)nn2)c1` [Example 4.19, (2S)-2-hydroxy-3-[4-(4-methyl-6-{[4-(trifluoromethyl)pyridin-2-yl]amino}pyridin-2-yl)-1H-1,2,3-triazol-1-yl]propanoic acid]: 0.0149 µM. With `Cc1cc(Nc2cc(C(F)F)ccn2)nc(-c2cn(CC3OC(=O)NC3C)nn2)c1` (single isomer, unassigned) [Example 7.15, 5-((4-(6-((4-(difluoromethyl)pyridin-2-yl)amino)-4-methylpyridin-2-yl)-1H-1,2,3-triazol-1-yl)methyl)-4-methyloxazolidin-2-one], the half-maximal inhibitory concentration (IC50) came to 0.0043 µM.

For `Cc1cc(Nc2nccc(C(F)(F)F)n2)cc(-c2cn(C(C)C(O)CC#N)nn2)c1` (single isomer, unassigned) [Example 4.6, 3-hydroxy-4-[4-(3-methyl-5-{[4-(trifluoromethyl)pyrimidin-2-yl]amino}phenyl)-1H-1,2,3-triazol-1-yl]pentanenitrile], the IC50 stood at 0.0455 µM.

In the case of `COc1nc(Nc2cc(C)cc(-c3cn(CC(C)(O)C(C)(C)O)nn3)c2)ncc1Cl` (stereo not shown) [Example 21.16, 1-(4-{3-[(5-chloro-4-methoxypyrimidin-2-yl)amino]-5-methylphenyl}-1H-1,2,3-triazol-1-yl)-2,3-dimethylbutane-2,3-diol], the IC50 is 0.0506 µM.

With `Cc1cc(Nc2cc(C(F)F)ccn2)nc(-c2cn(C(C)C3CNC(=O)O3)nn2)c1` (single isomer, unassigned) [Example 7.11, 5-(1-(4-(6-((4-(difluoromethyl)pyridin-2-yl)amino)-4-methylpyridin-2-yl)-1H-1,2,3-triazol-1-yl)ethyl)oxazolidin-2-one], the IC50 was 0.0014 µM. Next, `Cc1cc(Nc2nccc(C(F)F)n2)cc(-c2cn(CC(C)(O)CC#N)nn2)c1` (single isomer, unassigned) [Example 27.1, 4-(4-(3-((4-(difluoromethyl)pyrimidin-2-yl)amino)-5-methylphenyl)-1H-1,2,3-triazol-1-yl)-3-hydroxy-3-methylbutanenitrile]: 0.0197 µM; `Cc1cc(Nc2nccc(C(F)F)n2)cc(-c2cn(CC3OC(=O)NC3C)nn2)c1` (single isomer, unassigned) [Example 7.42, 5-{[4-(3-{[4-(difluoromethyl)pyrimidin-2-yl]amino}-5-methylphenyl)-1H-1,2,3-triazol-1-yl]methyl}-4-methyl-1,3-oxazolidin-2-one]: 0.0107 µM; `Cc1cc(Nc2cc(C(F)(F)F)ccn2)nc(-c2cn(C3CCCCC3O)nn2)c1` (racemic) [Example 5.89, 2-[4-(4-methyl-6-{[4-(trifluoromethyl)pyridin-2-yl]amino}pyridin-2-yl)-1H-1,2,3-triazol-1-yl]cyclohexanol]: 0.004 µM. Then `Cc1cc(Nc2nccc(C(F)(F)F)n2)cc(-n2ccnn2)c1` [Example 15.11, N-[3-methyl-5-(1H-1,2,3-triazol-1-yl)phenyl]-4-(trifluoromethyl)pyrimidin-2-amine], with 0.102 µM; and `Cc1cc(Nc2cc(C(F)(F)F)ccn2)nc(-c2cn(C/C=C/COc3ccccc3Cl)nn2)c1` [Example 5.32, 6-{1-[(2E)-4-(2-chlorophenoxy)but-2-en-1-yl]-1H-1,2,3-triazol-4-yl}-4-methyl-N-[4-(trifluoromethyl)pyridin-2-yl]pyridin-2-amine], with 0.752 µM; and `Cc1ccnc(Nc2cc(C)cc(-c3cn(C[C@@H](C)CO)nn3)n2)c1` [Example 5.15, (2R)-2-methyl-3-(4-{4-methyl-6-[(4-methylpyridin-2-yl)amino]pyridin-2-yl}-1H-1,2,3-triazol-1-yl)propan-1-ol], with 0.24 µM. Then `Cc1cc(Nc2nccc(C(F)F)n2)cc(-c2cn(CC3OC(=O)NC3C)nn2)c1` (single isomer, unassigned) [Example 7.7, 5-((4-(3-((4-(difluoromethyl)pyrimidin-2-yl)amino)-5-methylphenyl)-1H-1,2,3-triazol-1-yl)methyl)-4-methyloxazolidin-2-one], with 0.0099 µM; and `COC(=O)CNC(=O)[C@H](C)n1cc(-c2cc(C)cc(Nc3cc(C(F)(F)F)ccn3)n2)nn1` [Example 1.1, Methyl N-{(2S)-2-[4-(4-methyl-6-{[4-(trifluoromethyl)pyridin-2-yl]amino}pyridin-2-yl)-1H-1,2,3-triazol-1-yl]propanoyl}glycinate trifluoroacetate], with 0.0763 µM. Consider `Cc1cc(Nc2cc(C(F)(F)F)ccn2)nc(-c2cn(C3CCCCC(O)C3O)nn2)c1` (single isomer, unassigned) [Example 10.6, 3-[4-(4-methyl-6-{[4-(trifluoromethyl)pyridin-2-yl]amino}pyridin-2-yl)-1H-1,2,3-triazol-1-yl]cycloheptane-1,2-diol], for which the concentration for half-maximal inhibition (IC50) was 0.0047 µM.

Regarding `Cc1cc(Nc2nccc(C(F)(F)F)n2)cc(-c2cn(CC(=O)N3[C@H](C)COC[C@@H]3C)nn2)c1` [Example 5.65, N-[3-(1-{2-[(cis)-3,5-dimethylmorpholin-4-yl]-2-oxoethyl}-1H-1,2,3-triazol-4-yl)-5-methylphenyl]-4-(trifluoromethyl)pyrimidin-2-amine], the IC50 amounted to 0.122 µM. Then `Cc1ccnc(Nc2cc(C)cc(-c3cn(C[C@H](C)CO)nn3)n2)c1` [Example 5.16, (2S)-2-methyl-3-(4-{4-methyl-6-[(4-methylpyridin-2-yl)amino]pyridin-2-yl}-1H-1,2,3-triazol-1-yl)propan-1-ol], with 0.235 µM.

Turning to `CCOC(=O)C(C)(C)Cc1cn(-c2cc(C)cc(Nc3nccc(C(F)(F)F)n3)c2)nn1` [Example 15.15, ethyl 2,2-dimethyl-3-[1-(3-methyl-5-{[4-(trifluoromethyl)pyrimidin-2-yl]amino}phenyl)-1H-1,2,3-triazol-4-yl]propanoate], the IC50 worked out at 0.255 µM. Next, `Cc1cc(Nc2nccc(C(F)F)n2)cc(-c2cn(CC3(C)CNC(=O)O3)nn2)c1` (single isomer, unassigned) [Example 7.31, 5-{[4-(3-{[4-(difluoromethyl)pyrimidin-2-yl]amino}-5-methylphenyl)-1H-1,2,3-triazol-1-yl]methyl}-5-methyl-1,3-oxazolidin-2-one]: 0.008 µM; `Cc1cc(Nc2cc(C(F)(F)F)ccn2)nc(-c2cn(C(C)C(=O)NCCc3c[nH]c4ccc(OCc5ccccc5)cc34)nn2)c1` (stereo not shown) [Example 1.30, N-{2-[5-(benzyloxy)-1H-indol-3-yl]ethyl}-2-[4-(4-methyl-6-{[4-(trifluoromethyl)pyridin-2-yl]amino}pyridin-2-yl)-1H-1,2,3-triazol-1-yl]propanamide]: 1.62 µM; `Cc1cc(Nc2cc(C(F)(F)F)ccn2)nc(-c2cn(-c3ccc(Br)cn3)nn2)c1` [6.2]: 1.13 µM.

Take `Cc1cc(Nc2cc(C(F)(F)F)ccn2)nc(-c2cn(CC(=O)N3CCC(C(=O)O)CC3)nn2)c1` (racemic) [Example 5.80, 1-{[4-(4-methyl-6-{[4-(trifluoromethyl)pyridin-2-yl]amino}pyridin-2-yl)-1H-1,2,3-triazol-1-yl]acetyl}piperidine-4-carboxylic acid]: the IC50 amounted to 0.0245 µM.

Consider `Cc1cc(Nc2cc(C(F)(F)F)ccn2)nc(-c2cn(CC(C)(O)C(=O)O)nn2)c1` (stereo not shown) [Example 4.18, 2-hydroxy-2-methyl-3-[4-(4-methyl-6-{[4-(trifluoromethyl)pyridin-2-yl]amino}pyridin-2-yl)-1H-1,2,3-triazol-1-yl]propanoic acid], for which the IC50 was determined as 0.0266 µM.
